Test results as given in paper PMC9298037 (Chemmedchem, 2021).
Read-outs that look alike come from different tables or passages of the source.

Columns and labels:
[1] = target: T1, MELK (Homo sapiens, UniProt Q14680); experiment: biochemical; conditions: for inhibition at 10 µM: read-out: Inh. %, single-point screen at 10uM concentration, Table S1
[2] = target: T1, MELK

T1 sequence (Q14680 whole entry): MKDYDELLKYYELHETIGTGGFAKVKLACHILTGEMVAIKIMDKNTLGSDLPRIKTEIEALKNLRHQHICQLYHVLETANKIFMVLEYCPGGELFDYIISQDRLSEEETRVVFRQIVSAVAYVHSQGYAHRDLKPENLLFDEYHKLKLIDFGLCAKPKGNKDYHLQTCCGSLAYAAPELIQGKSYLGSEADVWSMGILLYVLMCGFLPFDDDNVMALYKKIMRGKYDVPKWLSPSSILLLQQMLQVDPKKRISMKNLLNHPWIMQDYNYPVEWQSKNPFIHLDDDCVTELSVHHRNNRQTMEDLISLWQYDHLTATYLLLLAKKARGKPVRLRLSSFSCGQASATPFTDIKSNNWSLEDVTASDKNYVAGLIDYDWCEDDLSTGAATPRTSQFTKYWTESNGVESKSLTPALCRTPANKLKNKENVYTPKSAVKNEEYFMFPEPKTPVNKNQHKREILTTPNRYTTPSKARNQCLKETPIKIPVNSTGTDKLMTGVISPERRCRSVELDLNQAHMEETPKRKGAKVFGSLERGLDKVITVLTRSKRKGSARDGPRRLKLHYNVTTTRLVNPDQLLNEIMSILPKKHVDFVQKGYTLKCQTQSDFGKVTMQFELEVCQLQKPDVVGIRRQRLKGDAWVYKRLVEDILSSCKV

| IC50 [1] | inhibition at 10 µM [1] | SMILES | also measured |
| --- | --- | --- | --- |
| 24.1 µM |  | Cc1c2ccccc2cn2nc(-c3ccc(Cl)cc3Cl)nc12 [Compound 13, 2‐(2,4‐dichlorophenyl)‐10‐methyl‐[1,2,4]triazolo[1,5‐b]isoquinoline] |  |
| > 3.7 µM |  | CCc1c2ccccc2cn2nc(-c3ccc(Cl)cc3)nc12 [Compound 17, 2‐(4‐chlorophenyl)‐10‐ethyl‐[1,2,4]triazolo[1,5‐b]isoquinoline] |  |
| 2.04 µM | > 40% | CCc1c2ccccc2cn2nc(-c3cccc(OC)c3)nc12 [Compound 19, 10‐ethyl‐2‐(3‐methoxyphenyl)‐[1,2,4]triazolo[1,5‐b]isoquinoline] | activity boost ([2]; in comparison to compound 5 (10-ethyl vs 10-methyl)): 2.5 fold |
| 0.794 µM |  | CCc1c2ccccc2cn2nc(-c3ccc(OC)cc3)nc12 [Compound 18, 10‐ethyl‐2‐(4‐methoxyphenyl)‐[1,2,4]triazolo[1,5‐b]isoquinoline] | inhibitory activity (in words) ([2]; MELK): sub‐micromolar; activity boost ([2]; over 3-methoxyphenyl counterpart 19): 2.5 fold; activity boost ([2]; over 10-methyl counterpart 4): 4.5 fold |
|  | > 40% | c1ccc(-c2nc3c4ccccc4ccn3n2)cc1 [ID 1855, 2‐phenyl‐[1,2,4]triazolo[3,2‐a]isoquinoline] |  |

More lines, now with the values behind:

| SMILES | IC50 [1] | inhibition at 10 µM [1] | also measured |
| --- | --- | --- | --- |
| Cc1c2ccccc2cn2nc(-c3ccc(C(F)(F)F)cc3)nc12 [Compound 8, 10‐methyl‐2‐(4‐(trifluoromethyl)phenyl)‐[1,2,4]triazolo[1,5‐b]isoquinoline] |  | > 40% |  |
| Cc1c2ccccc2cn2nc(-c3ccccn3)nc12 [Compound 11, 10‐methyl‐2‐(pyridin‐2‐yl)‐[1,2,4]triazolo[1,5‐b]isoquinoline] | 6.3 µM |  |  |
| COc1ccc(-c2nc3c(C)c4ccccc4cn3n2)cc1 [Compound 4, 2‐(4‐methoxyphenyl)‐10‐methyl‐[1,2,4]triazolo[1,5‐b]isoquinoline] | 3.67 µM | > 40% |  |
| COc1cccc(-c2nc3c(C)c4ccccc4cn3n2)c1 [Compound 5, 2‐(3‐methoxyphenyl)‐10‐methyl‐[1,2,4]triazolo[1,5‐b]isoquinoline] | 4.93 µM | > 40% |  |
